18 compounds from publication PMC6272992, “Synthesis and Cytotoxic Effect of Some Novel 1,2-Dihydropyridin-3-carbonitrile and Nicotinonitrile Derivatives” (Molecules, 2015) can be followed below.

Converted amounts (≈) assume the structure as drawn.

The test system of data set [1] is SF-268 (CNS cancer). As to the kind of experiment: SRB cancer cell growth assay, SF-268. The data set is classed as cell-based, human. As to conditions: for IC50: Homo sapiens, SF-268, 48 h exposure, SRB, read-out: IC50 (μg/mL) SF-268. More on the design: key to activity class SF-268: highly active; b: moderately active; weakly active. How it is done: (§1) The in vitro cytotoxic activity the newly synthesized compounds against human breast cell line (MCF7), non-small cell lung cancer NCI-H460, CNS cancer SF-268 and WI 38 (normal fibroblast cells) were evaluated using doxorubicin as the reference drug, according to the method reported by Skehan et al..
(§2) The newly synthesized compounds were evaluated in vitro against three human cancer cell lines; which are MCF-7 (breast adenocarcinoma), NCI-H460 (non-small cell lung cancer) and SF-268 (CNS cancer), and WI 38 (normal fibroblast cells) were used in this study. MCF-7 was obtained from the European Collection of Cell Cultures (ECACC, Salisbury, UK) but NCI-H460, SF-268 and WI 38 were kindly provided by the National Cancer Institute (NCI, Cairo, Egypt). They grow as monolayers routinely maintained in RPMI-1640 medium supplemented with 5% heat inactivated fetal bovine serum (FBS), 2 mM glutamine and antibiotics (penicillin 100 U/mL, streptomycin 100 µg/mL), at 37 °C in a humidified atmosphere containing 5% CO2. Exponentially growing cells were obtained by plating 1.5 × 10^5 cells/mL for MCF-7 and SF-268, and 0.75 × 10^4 cells/mL for NCI-H460 followed by 24 h of incubation. The effect of the vehicle solvent (DMSO) on the growth of these cell lines was evaluated in all experiments by exposing untreated control cells to the maximum concentration (0.5%) of DMSO used in each assay.
(§3) The effect of compounds on the in vitro growth of human tumor cell lines were evaluated according to the procedure adopted by the National Cancer Institute (NCI, […], USA) in the “In vitro Anticancer Drug Discovery Screen” that uses the protein-binding dye sulforhodamine B (SRB) to assess cell growth. In the assay protocol, all cells were incubated at 37 °C under humidified atmosphere containing 5% CO2. Briefly, exponentially cells growing in 96-well plates were then exposed for 48 h to five serial concentrations of each compound, starting from a maximum concentration of 150 μg/mL. Following this exposure period, adherent cells were fixed, washed and stained. The bound stain was solubilized and the absorbance was measured at 492 nm in a Power Wave XS plate reader (Bio-Tek Instruments Inc., Winston, NC, USA). For each test compound and cell line, a dose response curve was obtained and the inhibitory concentration of 50% (IC50), corresponding to the concentration of the compounds that inhibited 50% of the net cell growth was calculated as described elsewhere. Doxorubicin was used as a positive control and tested in the same manner.

In data set [2] the test system is WI 38 (normal fibroblast cells). The data set can be described thus: SRB cell growth assay, normal cells WI 38. As to conditions: 48 h exposure, non-cytotoxic = IC50 > 100 μg/mL; for IC50: Homo sapiens. Type of data set: cell-based, human. How it is done:
as §1, §2, §3

Data set [3] deals with MCF-7 (breast adenocarcinoma). As to the kind of experiment: SRB cancer cell growth assay, MCF-7. Type of data set: cell-based, human. More on the design: key to activity class MCF-7: highly active; b: moderately active; weakly active. Conditions: for IC50: Homo sapiens, MCF7, MCF-7, 48 h exposure, SRB, read-out: IC50 (μg/mL) MCF-7. How it is done:
as §1, §2, §3

The subject of data set [4] is NCI-H460 (non-small cell lung cancer). As to the kind of experiment: SRB cancer cell growth assay, NCI-H460. The data set is classed as cell-based, human. Also noted: key to activity class NCI-H460: highly active; b: moderately active; weakly active. As to conditions: for IC50: Homo sapiens, NCI-H460, 48 h exposure, SRB, read-out: IC50 (μg/mL) NCI-H460. How it is done: as §1, §2, §3

Consider `N#Cc1c(-c2ccc(F)cc2)cc(-c2ccc(Cl)cc2Cl)[nH]c1=O` [Compound 2, 6-(2,4-Dichlorophenyl)-4-(4-fluorophenyl)-2-oxo-1,2-dihydropyridin-3-carbonitrile], for which the melting point is 276 to 277 °C.
For the compound `Nc1nnc2[nH]c(-c3ccc(Cl)cc3Cl)cc(-c3ccc(F)cc3)c1-2` [Compound 4, 6-(2,4-Dichlorophenyl)-4-(4-fluorophenyl)-7H-pyrazolo[3,4-b]pyridin-3-amine], the melting point fell in the range of 309 to 311 °C. In data set [1], the IC50 was found to be 69 ± 9.15 µg/mL (≈ 185 µM) and the “activity class SF-268” value was “c”. For the same compound, the IC50 in data set [2] came to 18.6 ± 1.21 µg/mL (≈ 49.9 µM). Also, in data set [3], the IC50 was 67 ± 6.23 µg/mL (≈ 180 µM) and the “activity class MCF-7” value was “c”. Besides, in data set [4], the IC50 was 56.8 ± 8.2 µg/mL (≈ 152 µM) and the “activity class NCI-H460” value is recorded as “c”.
Turning to `N#Cc1c(N)c2c(-c3ccc(F)cc3)cc(-c3ccc(Cl)cc3Cl)nc2[nH]c1=O` [Compound 7, 4-Amino-7-(2,4-dichlorophenyl)-5-(4-fluorophenyl)-2-oxo-1,2-dihydro-1,8-naphthyridine-3-carbonitrile], the melting point was in the range of 188 to 189 °C. In addition, in data set [1], the IC50 was 62.1 ± 3.61 µg/mL (≈ 146 µM) and the “activity class SF-268” value is “c”. In data set [2], this compound displayed an IC50 of 23 ± 8.2 µg/mL (≈ 54 µM). Also, in data set [3], the IC50 was 36.2 ± 2.14 µg/mL (≈ 85.2 µM) and the “activity class MCF-7” value was “c”. Moreover, in data set [4], the IC50 worked out at 74 ± 3.65 µg/mL (≈ 174 µM) and the “activity class NCI-H460” value was “c”.
In the case of `CCOC(=O)COc1nc(-c2ccc(Cl)cc2Cl)cc(-c2ccc(F)cc2)c1C#N` [Compound 8, Ethyl 2-[3-cyano-6-(2,4-dichlorophenyl)-4-(4-fluorophenyl)pyridin-2-yloxy]acetate], the melting point is 119 to 121 °C. Also, in data set [1], the IC50 was found to be 0.02 ± 0.045 µg/mL (≈ 0.0449 µM) and the “activity class SF-268” value was “a”. For the same compound, in data set [2], the “IC50 (μg/mL) WI 38” value was “non-cytotoxic” and the IC50 was over 100 µg/mL. In addition, in data set [3], the IC50 came to 0.02 ± 0.002 µg/mL (≈ 0.0449 µM) and the “activity class MCF-7” value is recorded as “a”. Besides, in data set [4], the IC50 is 0.01 ± 0.002 µg/mL (≈ 0.0225 µM) and the “activity class NCI-H460” value is “a”.
Compound `N#Cc1c(-c2ccc(F)cc2)cc(-c2ccc(Cl)cc2Cl)nc1OCC(=O)NN` [Compound 9, 2-[3-Cyano-6-(2,4-dichlorophenyl)-4-(4-fluorophenyl)pyridin-2-yloxy]acetohydrazide] came in with a melting point of 197 to 199 °C. In data set [1], the IC50 was determined as 0.46 ± 0.06 µg/mL (≈ 1.07 µM) and the “activity class SF-268” value is reported as “a”. In data set [2], the IC50 is 62.2 ± 2.02 µg/mL (≈ 144 µM). Besides, in data set [3], the IC50 came to 2.41 ± 1.24 µg/mL (≈ 5.59 µM) and the “activity class MCF-7” value is “a”. Moreover, in data set [4], the IC50 turned out to be 2.3 ± 2.86 µg/mL (≈ 5.33 µM) and the “activity class NCI-H460” value was “a”.
For `N#Cc1c(-c2ccc(F)cc2)cc(-c2ccc(Cl)cc2Cl)nc1OCC(=O)NN=Cc1ccc(F)cc1` [Compound 10, 2-[3-Cyano-6-(2,4-dichlorophenyl)-4-(4-fluorophenyl)pyridin-2-yloxy]-N′-(4-fluorobenzylidene)-acetohydrazide], the melting point is 219 to 221 °C. For the same compound, in data set [1], the IC50 turned out to be 28.2 ± 8.83 µg/mL (≈ 52.4 µM) and the “activity class SF-268” value was “b”. Moreover, the IC50 in data set [2] stood at 19.8 ± 2.68 µg/mL (≈ 36.8 µM). In data set [3], the IC50 stood at 30.6 ± 1.1 µg/mL (≈ 56.9 µM) and the “activity class MCF-7” value is listed as “b”. Besides, in data set [4], the IC50 was 30.7 ± 1.64 µg/mL (≈ 57.1 µM) and the “activity class NCI-H460” value was “b”.
The compound `N#Cc1c(-c2ccc(F)cc2)cc(-c2ccc(Cl)cc2Cl)nc1Cl` [Compound 11, 2-Chloro-6-(2,4-dichlorophenyl)-4-(4-fluorophenyl)nicotinonitrile] gave a melting point of 181 to 182 °C.
The compound `N#Cc1c(-c2ccc(F)cc2)cc(-c2ccc(Cl)cc2Cl)nc1NCc1ccccc1` [Compound 12, 2-(Benzylamino)-6-(2,4-dichlorophenyl)-4-(4-fluorophenyl)nicotinonitrile] gave a melting point of 158 to 159 °C.
Compound `N#Cc1c(-c2ccc(F)cc2)cc(-c2ccc(Cl)cc2Cl)nc1NCc1ccc2c(c1)OCO2` [Compound 13, 2-(Benzo[d][1,3]dioxol-5-ylmethylamino)-6-(2,4-dichlorophenyl)-4-(4-fluorophenyl)nicotinonitrile] displayed a melting point of 149 to 151 °C. Further, in data set [1], the IC50 stood at 23.2 ± 4.12 µg/mL (≈ 47.2 µM) and the “activity class SF-268” value is recorded as “b”. In data set [2], this compound yielded an IC50 of 20.4 ± 4.99 µg/mL (≈ 41.4 µM). Besides, in data set [3], the IC50 was determined as 16.3 ± 1.87 µg/mL (≈ 33 µM) and the “activity class MCF-7” value is “b”. In data set [4], the IC50 was 18.9 ± 1.03 µg/mL (≈ 38.4 µM) and the “activity class NCI-H460” value is “b”.
Take `N#Cc1c(-c2ccc(F)cc2)cc(-c2ccc(Cl)cc2Cl)nc1NCCc1ccccc1` [Compound 14, 6-(2,4-Dichlorophenyl)-4-(4-fluorophenyl)-2-(phenylethylamino)nicotinonitrile]: the melting point lay in the range of 142 to 143 °C.
For the compound `CC1CCCCN1c1nc(-c2ccc(Cl)cc2Cl)cc(-c2ccc(F)cc2)c1C#N` (centres unmarked) [Compound 15a, 6-(2,4-Dichlorophenyl)-4-(4-fluorophenyl)-2-(2-methylpiperidin-1-yl)nicotinonitrile], the melting point is 98 to 100 °C. For the same compound, in data set [1], the IC50 worked out at 38.9 ± 2.63 µg/mL (≈ 88.4 µM) and the “activity class SF-268” value is given as “c”. This compound displayed an IC50 in data set [2] of 30.6 ± 6.21 µg/mL (≈ 69.5 µM). Besides, in data set [3], the IC50 came to 37.1 ± 7.34 µg/mL (≈ 84.2 µM) and the “activity class MCF-7” value is recorded as “c”. In addition, in data set [4], the IC50 was determined as 16.4 ± 2.32 µg/mL (≈ 37.2 µM) and the “activity class NCI-H460” value was “b”.
The compound `N#Cc1c(-c2ccc(F)cc2)cc(-c2ccc(Cl)cc2Cl)nc1N1CCOCC1` [Compound 15b, 6-(2,4-Dichlorophenyl)-4-(4-fluorophenyl)-2-morpholinonicotinonitrile] gave a melting point of 112 to 114 °C.
Turning to `N#Cc1c(-c2ccc(F)cc2)cc(-c2ccc(Cl)cc2Cl)nc1C(C#N)C#N` [Compound 16, 2-[3-Cyano-6-(2,4-dichlorophenyl)-4-(4-fluorophenyl)pyridin-2-yl]malononitrile], the melting point fell in the range of 99 to 101 °C. In data set [1], the IC50 amounted to 0.01 ± 0.003 µg/mL (≈ 0.0246 µM) and the “activity class SF-268” value is “a”. Also, in data set [2], the “IC50 (μg/mL) WI 38” value is listed as “non-cytotoxic” and the IC50 was over 100 µg/mL. For the same compound, in data set [3], the IC50 amounted to 0.01 ± 0.002 µg/mL (≈ 0.0246 µM) and the “activity class MCF-7” value is given as “a”. In addition, in data set [4], the IC50 was determined as 0.02 ± 0.001 µg/mL (≈ 0.0491 µM) and the “activity class NCI-H460” value is “a”.
`N#Cc1c(-c2ccc(F)cc2)cc(-c2ccc(Cl)cc2Cl)nc1NN` [Compound 17, 6-(2,4-Dichlorophenyl)-4-(4-fluorophenyl)-2-hydrazinylnicotinonitrile] displayed a melting point of 223 to 224 °C. In data set [1], the IC50 was determined as 2.19 ± 0.83 µg/mL (≈ 5.87 µM) and the “activity class SF-268” value is on record as “a”. The compound further had an IC50 in data set [2] of 64.1 ± 1.22 µg/mL (≈ 172 µM). Also, in data set [3], the IC50 stood at 0.61 ± 0.082 µg/mL (≈ 1.63 µM) and the “activity class MCF-7” value was “a”. In addition, in data set [4], the IC50 worked out at 0.86 ± 0.02 µg/mL (≈ 2.3 µM) and the “activity class NCI-H460” value is on record as “a”.
Compound `N#Cc1c(-c2ccc(F)cc2)cc(-c2ccc(Cl)cc2Cl)nc1NN=Cc1ccccc1Br` [Compound 21a, 2-[2-(2-Bromobenzylidene)hydrazinyl]-6-(2,4-dichlorophenyl)-4-(4-fluorophenyl)nicotinonitrile] showed a melting point of 226 to 228 °C.
`N#Cc1c(-c2ccc(F)cc2)cc(-c2ccc(Cl)cc2Cl)nc1NN=Cc1ccc([N+](=O)[O-])cc1` [Compound 21b, 6-(2,4-Dichlorophenyl)-4-(4-fluorophenyl)-2-[2-(4-nitrobenzylidene)hydrazinyl]nicotinonitrile]: the melting point lay within 281 to 283 °C.
In turn, `N#Cc1c(-c2ccc(F)cc2)cc(-c2ccc(Cl)cc2Cl)nc1NN=Cc1cccc2ccccc12` [Compound 21e, 6-(2,4-Dichlorophenyl)-4-(4-fluorophenyl)-2-[2-(naphthalen-1-ylmethylene)hydrazinyl] nicotinonitrile] registered a melting point of 296 to 298 °C.
Take `COc1cccc2c1C(=O)c1c(O)c3c(c(O)c1C2=O)C[C@@](O)(C(=O)CO)C[C@@H]3O[C@H]1C[C@H](N)[C@H](O)[C@H](C)O1` [Doxorubicin, reference compound]: the IC50 was 0.09 ± 0.007 µg/mL (≈ 0.166 µM) in data set [1], 0.04 ± 0.008 µg/mL (≈ 0.0736 µM) in data set [3] and 0.09 ± 0.008 µg/mL (≈ 0.166 µM) in data set [4]. Besides, the “IC50 (μg/mL) WI 38” value in data set [2] is on record as “non-cytotoxic”.
